Measured values published in patent US9675596B2, “1,2,4-thiazolidin-3-one derivatives and their use in the treatment of cancer” (Baltic Bio AB, priority 2009, dated 2017).

Assays:
[1] = tested on: PC-3 cells; assay: Cell proliferation assay (BrdU incorporation); type: cell-based; settings: Homo sapiens, serum-free, 0.6 μM, relative to vehicle control (1 unit), 18 h + 6 h BrdU, read-out: Units of BrdU incorporation
Description: PC-3 cancer cell lines were propagated in D-MEM (Gibco 21885) supplemented with 10% Foetal calf serum. 15000 cells per well were seeded in 96 well plates and incubated overnight. The culture media was changed to serum-free D-MEM for 24 h. The culture media was then changed to serum free D-MEM containing either 0.2% DMSO as vehicle control or 0.3, 0.6, 1.2 or 2.5 μM (or 1.25, 2.5, 5, 10 μM (as indicated in Table 1 below)) of the selected compounds of Example 1 to Example 8 in 0.2% DMSO in quadruplicate. After 18 h incubation, BrdU was added according to manufacturer's recommendations. After 6 h incubation in the presence of BrdU, the culture media was removed and BrdU incorporation was measured using “Cell Proliferation ELISA, BrdU colorimetric” Roche (11647229001) according to manufacturer's recommendations.
Proliferation rate of PC-3 cells are reduced by relevant concentrations of the test compounds as measured by BrdU incorporation.

[2] = tested on: AMPK; assay: Activation of AMPK: Western blot of AMPK (Thr172) phosphorylation in PC3 cells; type: cell-based, human; settings: PC3 cells starved 24 h serum-free; 0.3, 0.6, 1.2 and 2.5 μM for 4 h
Description: After starvation of PC3 cells in serum-free medium for 24 h, 0.3, 0.6, 1.2 and 2.5 μM of the compound of Example 1 or the compound of Example 2c was added and incubated for an additional 4 h. The Figure provides representative immunoblots of AMPK phosphorylation by the compound of Example 1 or the compound of Example 2c.
After starvation of PC3 cells in serum-free medium for 16 h, 1 and 5 μM of the selected compounds were added and incubated for an additional 4 h. The Figure provides representative immunoblots of the total level of AMPK (Pan-AMPK) and the level of AMPK and acetyl-CoA carboxylase phosphorylation by the selected compounds of the examples. The selected compounds of the examples stimulate AMPK phosphorylation in PC3 cells and induce the phosphorylation of acetyl-CoA carboxylase.
Selected compounds of Examples 1, 4 to 6 and 8 were prepared. A stock solution of […] was prepared by dissolving the compound in 100% DMSO.
Human PC3 cells were purchased from LGC Promochem-ATCC (ATCC catalog no CRL-1435). […]
PC3 cells were lysed in buffer (100 mM TRIS pH 6.8, 2% w/v Sodium dodecylsulfate (SDS), 10 mM NaF, 10 mM 3-glycerophosphate, 1 mM Na Vanadate). […] Protein concentrations of the lysates were measured using a BCA protein assay kit (Pierce #23225). […]

[3] = molecular target: T1, PP2C-α1 (Homo sapiens, UniProt P35813); assay: Dephosphorylation of PP2C assay (PP2C-α1 mediated dephosphorylation of AMPK trimer); type: biochemical; settings: 2.5, 5 and 10 μM; AMPK trimer α1/β1/γ1, 20 min, 30° C.
T1 construct: purchased Abcam (PP2C-α1); Invitrogen (AMPK trimer) Ab51205; PV4672
T1 sequence (P35813 1-382): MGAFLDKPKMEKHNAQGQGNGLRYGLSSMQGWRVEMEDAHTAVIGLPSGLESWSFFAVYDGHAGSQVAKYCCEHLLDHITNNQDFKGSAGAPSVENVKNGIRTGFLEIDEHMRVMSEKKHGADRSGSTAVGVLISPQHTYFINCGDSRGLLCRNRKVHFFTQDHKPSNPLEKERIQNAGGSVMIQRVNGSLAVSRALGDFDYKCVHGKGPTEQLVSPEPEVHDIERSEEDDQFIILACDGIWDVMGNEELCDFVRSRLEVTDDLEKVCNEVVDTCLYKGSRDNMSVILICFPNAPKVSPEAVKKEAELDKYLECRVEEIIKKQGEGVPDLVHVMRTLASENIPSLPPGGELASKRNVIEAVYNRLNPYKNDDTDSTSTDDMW
Description: The compounds were tested in the assay at concentrations of 2.5, 5 and 10 μM (as depicted in the figure).
Hyperphosphosporylated AMPK trimer 10 (ng) (α1/β1/γ1) from Invitrogen (PV4672) was incubated in a buffer containing: 40 mM Hepes pH 7.45, 2 mM MnCl2, 0.5 mM DTT and 0.125 ng recombinant PP2C-α1 (Abcam Ab51205) in the presence or absence of potential inhibitors of the interaction/enzymatic reaction in at total volume of 10 μL for 20 minutes in 30° C. The reaction was terminated by addition of 40 μL stop solution containing 1% Bovine Serum Albumin (BSA), 10 mM EDTA and anti Phospho-AMPKα (Thr172) Antibody (cell signaling #2531) at a dilution of 1/1000. The samples were transferred to glutathione coated 96 well plated (Pierce #15140) and incubated O/N at +4° C. The plate was washed 3×200 μL in PBS/0.05% Triton X-100. The plate was incubated with PBS/1% BSA and horse radish peroxidase conjugated goat-anti rabbit antibody (Jackson immunoresearch Laboratories Inc. #111-035-003) at a dilution of 1/10 000 for 2 h in room temperature. The plate was washed 3×200 μL in PBS/0.05% Triton X-100. The assay was developed by addition of 100 μL Liquid Substrate System for ELISA (Sigma, T0440) for 5-30 min. The developing reaction was terminated by addition of 25 μL […]. Absorbance was measured at 450 nm, where absorbance correlates to amount p-T172 AMPK.

Question: For `O=c1[nH]s/c(=N\c2ccc(Cl)c(Cl)c2)n1Cc1ccc(F)c(F)c1` [Example 2c, 5-(3,4-dichlorophenyl)imino-4-[(3,4-difluorophenyl)methyl]-1,2,4-thiadiazolidin-3-one], which activity at 0.6 µM [1] is on record?
Answer: The activity at 0.6 µM was 34%.

Question: What about the “AMPK phosphorylation (immunoblot, FIG. 1)” value [2] of the same molecule?
Answer: The value was “stimulates AMPK phosphorylation”.

Question: And the “PP2C-α1 mediated dephosphorylation of AMPK (FIG. 3)” value [3]?
Answer: The value was “reduce PP2C-α1 mediated dephosphorylation of AMPK”.

Question: For `O=c1[nH]s/c(=N\c2ccc(Cl)c(Cl)c2)n1Cc1cccc(C(F)(F)F)c1` [Example 1, 5-(3,4-dichlorophenyl)imino-4-[[3-(trifluoromethyl)phenyl]methyl]-1,2,4-thiadiazolidin-3-one], which activity at 0.6 µM [1] is on record?
Answer: Its activity at 0.6 µM is 39%.

Question: And the “AMPK phosphorylation (immunoblot, FIG. 1)” value [2]?
Answer: Its value is “stimulates AMPK phosphorylation”.

Question: What about the “PP2C-α1 mediated dephosphorylation of AMPK (FIG. 3)” value [3] of the same molecule?
Answer: The value was “reduce PP2C-α1 mediated dephosphorylation of AMPK”.
